From US20090163567A1 (priority 2005, published 2009)
Like-named read-outs stand apart in the source and are kept apart here.

Key:
cucumber downy mildew [1] = assay: Test on preventive effect against cucumber downy mildew; format: in vivo, Cucumber (cultivar: Sagamihanshirofushinari)
Experimental: Cucumber (cultivar: Sagamihanshirofushinari) was cultivated in a polyethylene pot having a diameter of 7.5 cm, and when the cucumber reached two-leaf stage, a drug solution having the respective test compounds adjusted to the predetermined concentrations (applied amount: 1000 L/ha), was applied by means of a spray gun. After the applied solution dried, the cucumber was sprayed and inoculated with a suspension of spores of cucumber downy mildew and kept in a humidified chamber at 20° C. for 20 hours. Thereafter, the cucumber was kept in a thermostatic chamber at 20° C. for 7 days, whereupon the lesion area rate was obtained. Here, the lesion area rate is a value obtained in such a manner that lesion area of Downy Mildew of specimen leaves was obtained by visual examination, and its ratio to the total area of specimen leaves is shown by percent.
(§1) The lesion area ratio in non-treated area was obtained in the same manner as in the treated area except that instead of the drug solution, water was applied by means of a spray gun.
(§2) Further, a theoretical value can be calculated by the Colby formula. If the experimental value is lower than the theoretical value by the Colby formula, the fungicidal composition for agricultural or horticultural use of the present invention has a synergistic effect for controlling the plant disease. In this context, the theoretical values by the Colby formula are also shown in brackets ( ) in Tables 1 and 2.

cucumber downy mildew [2] = assay: Test on curative effect against cucumber downy mildew; format: in vivo, Cucumber (cultivar: Sagamihanshirofushinari)
Experimental: Cucumber (cultivar: Sagamihanshirofushinari) was cultivated in a polyethylene pot having a diameter of 7.5 cm, and when it reached two-leaf stage, the cucumber was sprayed and inoculated with a suspension of spores of cucumber downy mildew and kept in a humidified chamber at 20° C. for 20 hours. Then, after drying the crop plant, a drug solution having the respective test compounds adjusted to the predetermined concentrations, was applied in a sufficient amount (20 ml) by means of a spray gun. After the sprayed solution dried, it was kept in a thermostatic chamber at 20° C. for 5 days, whereupon the lesion area ratio was obtained. The results are shown in is Tables 3 and 4.
as §1
as §2, with “3” for “1”, “4.” for “2.”

tomato late blight [3] = format: in vivo, Tomato (cultivar: Ponderosa)
tomato late blight [4] = format: in vivo, Tomato (cultivar: Ponderosa); conditions: Test Example 4 (curative)
Grape Downy Mildew = assay: Test on preventive effect against grape downy mildew (leaf disks test); format: in vivo, grapes (cultivar: Neomuscat)
Description: Leaf disks having a diameter of 1 cm were punched out with leaf puncher from leaves of grapes (cultivar: Neomuscat), and a drug solution having the respective test compounds adjusted to the predetermined concentrations (applied amount: 500 L/ha), was applied to the leaf disks by means of an indoor spray equipment. After the applied solution dried, the leaf disks were transferred to petri dishes having a diameter of 3 cm, a suspension of zoosporangium of Grape Downy Mildew was dropwise applied, and the leaf disks were inoculated. They were kept in a chamber at 20° C. for 10 days. Then, the disease severity index of each disk was investigated by the following standards, and the disease severity was obtained by the following formula.
The disease severity in non-treated area was obtained in the same manner as in the treated area except that instead of the drug solution, water was applied by means of an auto sprayer.
Disease outbreak index 0: No sporogenesis is observed.
Disease severity index 1: The sporogenesis area is less than 10% of the drop area.
Disease severity index 2: The sporogenesis area is from 10% to less than 50% of the drop area.
Disease severity index 3: The sporogenesis area is from 50% to less than 90% of the drop area.
Disease severity index 4: The sporogenesis area is at least 90% of the drop area.
Disease severity=[(0×A+1×B+2×C+3×D+4×E)/{4×(A+B+C+D+E)}]×100
where A is the number of disks with disease severity index 0, B is the number of disks with disease severity index 1, C is the number of disks with disease severity index 2, D is the number of disks with disease severity index 3, and E is the number of disks with disease severity index 4.
as §2, with “9” for “1”, “10.” for “2.”

COc1ccc(/C(=C\C(=O)N2CCOCC2)c2ccc(F)cc2)cc1OC [Flumorph]
Lesion area ratio in the test on preventive effect against cucumber downy mildew (cucumber downy mildew [1]; Flumorph 12.5 ppm alone): 20%
Lesion area ratio in the test on curative effect against cucumber downy mildew (cucumber downy mildew [2]; Flumorph 400 ppm alone): 90%
Disease severity in the test on preventive effect against tomato late blight (tomato late blight [3]; Flumorph 6.3 ppm alone): 100
Disease severity in the test on preventive effect against tomato late blight (tomato late blight [3]; Flumorph 12.5 ppm alone): 100
Disease severity in the test on preventive effect against tomato late blight (tomato late blight [4]; Flumorph 50 ppm alone): 100
Disease severity in the test on preventive effect against tomato late blight (tomato late blight [4]; Flumorph 200 ppm alone): 37
Disease severity in the test on preventive effect against grape downy mildew (Grape Downy Mildew; Flumorph 1.6 ppm alone): 40

Cc1ccc(-c2c(Cl)nc(C#N)n2S(=O)(=O)N(C)C)cc1 [Compound No. 1, 4-chloro-2-cyano-1-dimethylsulfamoyl-5-(4-methylphenyl) imidazole]
Lesion area ratio in the test on preventive effect against cucumber downy mildew (cucumber downy mildew [1]; Compound No. 1 0.2 ppm alone): 10%
Lesion area ratio in the test on curative effect against cucumber downy mildew (cucumber downy mildew [2]; Compound No. 1 50 ppm alone): 100%
Lesion area ratio in the test on curative effect against cucumber downy mildew (cucumber downy mildew [2]; Compound No. 1 200 ppm alone): 100%
Disease severity in the test on preventive effect against tomato late blight (tomato late blight [3]; Compound No. 1 1.6 ppm alone): 19
Disease severity in the test on preventive effect against tomato late blight (tomato late blight [3]; Compound No. 1 6.3 ppm alone): 12
Disease severity in the test on preventive effect against tomato late blight (tomato late blight [4]; Compound No. 1 50 ppm alone): 100
Disease severity in the test on preventive effect against tomato late blight (tomato late blight [4]; Compound No. 1 400 ppm alone): 94
Disease severity in the test on preventive effect against grape downy mildew (Grape Downy Mildew; Compound No. 1 0.098 ppm alone): 100
Disease severity in the test on preventive effect against grape downy mildew (Grape Downy Mildew; Compound No. 1 0.39 ppm alone): 40

COC(=O)[C@@H](C)N(C(=O)Cc1ccccc1)c1c(C)cccc1C [Benalaxyl-M]
Lesion area ratio in the test on preventive effect against cucumber downy mildew (cucumber downy mildew [1]; Benalaxyl-M 25 ppm alone): 100%
Lesion area ratio in the test on curative effect against cucumber downy mildew (cucumber downy mildew [2]; Benalaxyl-M 400 ppm alone): 100%
Disease severity in the test on preventive effect against tomato late blight (tomato late blight [3]; Benalaxyl-M 25 ppm alone): 100
Disease severity in the test on preventive effect against tomato late blight (tomato late blight [3]; Benalaxyl-M 100 ppm alone): 100
Disease severity in the test on preventive effect against tomato late blight (tomato late blight [4]; Benalaxyl-M 50 ppm alone): 94
Disease severity in the test on preventive effect against tomato late blight (tomato late blight [4]; Benalaxyl-M 200 ppm alone): 75
Disease severity in the test on preventive effect against grape downy mildew (Grape Downy Mildew; Benalaxyl-M 0.024 ppm alone): 100
